Source: patent US20090247570A1, “PHARMACEUTICALS” (Pfizer Inc, priority 2006, published 2009)

Legend:
CD8 cell count = assay: Clinical trial: change from baseline in CD8 cell count (FACS) after 24 weeks; type: in vivo, human; conditions: for Mean change in CD8 count: from baseline
Method: (§1) (b) were infected with a non R5 tropic (CXCR4 using viral population) as determined by Monogram Bioscience Phenosense™ assay (WO 02/-99383; U.S. Pat. No. 5,837,464), or were of indeterminate tropism phenotype;
(§2) The eligible patients were randomised into three groups based on the drug regimens they received.
(§3) Group 3: optimised background therapy (as above) plus placebo.
(§4) After 24 weeks of treatment, the endpoints (as discussed below) were measured.
(§5) (d) For each patient, the change from baseline in CD4 and CD8 cell count was measured.
(§6) Cell count was measured by fluorescence activated cell sorting (FACS), which is a standard technique.

CD4 cell count = assay: Clinical trial: change from baseline in CD4 cell count (FACS) after 24 weeks; type: in vivo, human; conditions: for Mean change in CD4 count: from baseline
Description: as §1, §2, §3
(§7) The mean of these measurements was taken to be the baseline measurement for each patient.
as §4, §5, §6

[1] = test system: HIV-1 (CXCR4 using viral population); assay: Clinical trial: HIV-1 viral load after 24 weeks in treatment experienced patients infected with a CXCR4 using viral population; type: in vivo; conditions: for Mean VL reduction: after 24 weeks, change from baseline; for Treatment difference in VL reduction: 97.5% confidence interval printed in next row
Description: as §1
(c) had been on a stable antiviral regimen for at least 4 weeks prior to randomisation:
(e) (i) had at least three months previous antiretroviral experience with at least one agent from three of the four antiretroviral drug classes: NTRIs, NNRTIs, protease inhibitors and fusion inhibitors (i.e. were triple class experienced); or
(ii) had documented resistance to members of two of the four antiretroviral drug classes (i.e. were dual class resistant).
as §2, §3
These patients were distributed evenly among the 3 patient groups.
as §7, §4
(a) For each patient, the change from baseline in HIV-1 viral load (on a log[base10]scale) was measured.
(b) The percentage of patients with fewer than (i) 400 and (ii) 50 HIV-1 RNA copies\mL.

[2] = maraviroc both once and twice daily
[3] = once daily maraviroc + optimised regimen
[4] = twice daily maraviroc + optimised regimen
[5] = once daily maraviroc + optimised regimen, 24 weeks
[6] = twice daily maraviroc + optimised regimen, 24 weeks

In the case of “(N-{(1S)-3-[3-isopropyl-5-methyl-4H-1,2,4-triazole-4-yl]-exo-8-azabicyclo[3.2.1]oct-8-yl}-1-phenylpropyl)-4,4-difluorocyclohexanecarboxamide [maraviroc]”, the “increase in CD8 cell count as compared to the placebo” value (CD8 cell count; [2]) is reported as “clinically meaningful (and statistically significant) increase”, the “Mean CD8 cell change” value (CD8 cell count; maraviroc once daily + OBT) is reported as “+384.5 cells/μL” and the “Mean CD8 cell change” value (CD8 cell count; maraviroc twice daily + OBT) is reported as “+338.8 cells/μL”. The “Mean change in CD8 count” value (CD8 cell count; [3]) was “+384.5”, the “Mean change in CD8 count” value (CD8 cell count; [4]) was “+338.8” and the “increase in CD4 cell count as compared to the placebo” value (CD4 cell count; [2]) was “clinically meaningful (and statistically significant) increase”. The “mean CD4 change” value (CD4 cell count; maraviroc once daily + OBT) was “+59.6 cells/μL”, the “mean CD4 change” value (CD4 cell count; maraviroc twice daily + OBT) was “+62.2 cells/μL” and the “Mean change in CD4 count” value (CD4 cell count; [3]) was “+59.6”. For the same substance, the “Mean change in CD4 count” value (CD4 cell count; [4]) was “+62.4”, the “viral load change from baseline” value ([1]; maraviroc once daily and twice daily groups, 24 weeks) was −1.2 log10 and the “Mean VL reduction” value ([1]; once daily maraviroc 150 mg po (300 mg if OBT without PI or delavirdine) + optimised regimen) was −0.91 log10 copies/mL. The “Treatment difference in VL reduction” value ([1]; once daily maraviroc + optimised regimen vs placebo + optimised regimen, 24 weeks) was “+0.06 log10 copies/mL”, the “>0.5 log10 VL reduction (percentage of patients)” value [1, 5] was 42.1% and the “>1 log10 VL reduction (percentage of patients)” value [1, 5] was 31.6%. The “VL < 50 counts\mL (percentage of patients)” value [1, 5] was 21.0%^, the “VL < 400 counts/mL (percentage of patients)” value [1, 5] was 24.6% and the “Mean VL reduction” value ([1]; twice daily maraviroc 150 mg po (300 mg if OBT without PI or delavirdine) + optimised regimen) was −1.20 log10 copies/mL. The “Treatment difference in VL reduction” value ([1]; twice daily maraviroc + optimised regimen vs placebo + optimised regimen, 24 weeks) was −0.23 log10 copies/mL, the “>0.5 log10 VL reduction (percentage of patients)” value [1, 6] was 48.1% and the “>1 log10 VL reduction (percentage of patients)” value [1, 6] was 44.2%. For the same substance, the “VL < 50 counts\mL (percentage of patients)” value [1, 6] was 26.9% and the “VL < 400 counts/mL (percentage of patients)” value [1, 6] was 30.8%.
